From ChEMBL document CHEMBL5260859, “Discovery and structure-activity relationship study of 2-piperazinyl-benzothiazole derivatives as potent and selective PPARδ agonists” (Bioorg Med Chem, 2023)

Assays:
[1] = molecular target: T1, Peroxisome proliferator-activated receptor gamma (Homo sapiens, UniProt P37231); type: cell-based, CHO-K1
T1 sequence (P37231 whole entry): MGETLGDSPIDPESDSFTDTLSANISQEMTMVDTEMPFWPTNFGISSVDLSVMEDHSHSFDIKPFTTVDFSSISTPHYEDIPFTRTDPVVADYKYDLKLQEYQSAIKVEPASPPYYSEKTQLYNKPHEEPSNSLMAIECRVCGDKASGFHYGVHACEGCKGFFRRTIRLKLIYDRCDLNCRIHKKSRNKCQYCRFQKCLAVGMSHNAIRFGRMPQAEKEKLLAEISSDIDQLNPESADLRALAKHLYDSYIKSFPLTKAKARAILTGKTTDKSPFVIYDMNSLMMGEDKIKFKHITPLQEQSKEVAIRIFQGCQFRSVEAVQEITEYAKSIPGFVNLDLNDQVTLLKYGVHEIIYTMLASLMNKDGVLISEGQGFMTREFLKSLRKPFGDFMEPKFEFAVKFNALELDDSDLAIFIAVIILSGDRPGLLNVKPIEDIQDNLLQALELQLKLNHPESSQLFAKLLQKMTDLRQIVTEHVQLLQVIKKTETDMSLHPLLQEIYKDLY

Mus musculus [2] = species: Mus musculus; assay: Selectivity ratio of EC50 for agonist activity at Gal4-fused mouse PPAR-gamma ligand binding domain expressed in CHO-K1 cells to EC50 for agonist activity at Gal4-fused mouse PPAR-delta ligand binding domain expressed in CHO-K1 cells; type: cell-based
[3] = molecular target: T2, Peroxisome proliferator-activated receptor delta (Mus musculus) (UniProt P35396); assay: Agonist activity at Gal4-fused mouse PPAR-delta ligand binding domain expressed in CHO-K1 cells assessed as receptor transactivation incubated for 24 to 48 hrs by luciferase reporter gene assay relative to control; type: cell-based; conditions: time lower 24.0 hrs, time upper […]
T2 sequence (whole entry): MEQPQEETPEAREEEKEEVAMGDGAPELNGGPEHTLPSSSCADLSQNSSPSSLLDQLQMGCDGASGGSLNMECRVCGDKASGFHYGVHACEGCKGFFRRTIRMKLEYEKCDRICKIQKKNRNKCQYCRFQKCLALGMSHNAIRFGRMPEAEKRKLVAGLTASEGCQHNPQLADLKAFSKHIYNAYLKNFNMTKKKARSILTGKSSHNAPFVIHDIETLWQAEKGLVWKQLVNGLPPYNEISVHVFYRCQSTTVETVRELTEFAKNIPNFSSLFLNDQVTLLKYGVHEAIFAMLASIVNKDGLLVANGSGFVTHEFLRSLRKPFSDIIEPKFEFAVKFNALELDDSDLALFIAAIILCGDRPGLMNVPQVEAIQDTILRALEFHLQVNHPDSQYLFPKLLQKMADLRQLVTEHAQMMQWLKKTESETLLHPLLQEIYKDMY

Mus musculus [4] = species: Mus musculus; assay: Selectivity ratio of EC50 for agonist activity at Gal4-fused mouse PPAR-alpha ligand binding domain expressed in CHO-K1 cells to EC50 for agonist activity at Gal4-fused mouse PPAR-delta ligand binding domain expressed in CHO-K1 cells; type: cell-based
Homo sapiens = species: Homo sapiens; assay: Selectivity ratio of EC50 for agonist activity at Gal4-fused human PPAR-alpha ligand binding domain expressed in CHO-K1 cells to EC50 for agonist activity at Gal4-fused human PPAR-delta ligand binding domain expressed in CHO-K1 cells; type: cell-based
[5] = molecular target: T3, Peroxisome proliferator-activated receptor alpha (Mus musculus, UniProt P23204); assay: Agonist activity at Gal4-fused mouse PPAR-alpha ligand binding domain expressed in CHO-K1 cells assessed as receptor transactivation incubated for 24 to 48 hrs by luciferase reporter gene assay; type: cell-based
T3 sequence (P23204 whole entry): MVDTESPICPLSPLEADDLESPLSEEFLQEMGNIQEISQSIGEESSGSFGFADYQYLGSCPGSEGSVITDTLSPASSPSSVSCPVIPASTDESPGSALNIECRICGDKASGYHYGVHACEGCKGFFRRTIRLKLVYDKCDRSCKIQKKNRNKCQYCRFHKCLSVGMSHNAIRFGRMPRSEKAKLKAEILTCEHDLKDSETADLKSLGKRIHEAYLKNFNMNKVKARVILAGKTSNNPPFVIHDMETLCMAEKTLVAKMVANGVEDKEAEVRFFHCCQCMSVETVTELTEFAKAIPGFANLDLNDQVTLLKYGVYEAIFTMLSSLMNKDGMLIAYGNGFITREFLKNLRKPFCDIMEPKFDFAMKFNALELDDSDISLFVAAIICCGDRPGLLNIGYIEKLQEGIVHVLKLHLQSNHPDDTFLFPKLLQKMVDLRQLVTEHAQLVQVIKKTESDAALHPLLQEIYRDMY

[6] = molecular target: T4, Peroxisome proliferator-activated receptor delta (Homo sapiens) (UniProt Q03181); assay: Agonist activity at Gal4-fused human PPAR-delta ligand binding domain expressed in CHO-K1 cells assessed as receptor transactivation incubated for 24 to 48 hrs by luciferase reporter gene assay relative to control; type: cell-based; conditions: time lower 24.0 hrs, time upper […]
T4 sequence (whole entry): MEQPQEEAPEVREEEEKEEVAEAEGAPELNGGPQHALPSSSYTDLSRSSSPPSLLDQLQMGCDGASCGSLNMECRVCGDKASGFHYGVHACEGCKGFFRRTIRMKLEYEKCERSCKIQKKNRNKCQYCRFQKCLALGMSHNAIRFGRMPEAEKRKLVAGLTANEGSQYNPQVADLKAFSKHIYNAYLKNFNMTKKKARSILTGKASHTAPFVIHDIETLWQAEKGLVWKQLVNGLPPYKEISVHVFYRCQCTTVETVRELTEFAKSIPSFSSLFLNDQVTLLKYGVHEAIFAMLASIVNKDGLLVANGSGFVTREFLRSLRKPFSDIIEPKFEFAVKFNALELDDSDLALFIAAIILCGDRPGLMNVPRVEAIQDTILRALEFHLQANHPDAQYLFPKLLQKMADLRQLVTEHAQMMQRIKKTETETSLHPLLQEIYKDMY

| EC50 [1] [µM] | Emax [3] [%] | EC50 [5] [µM] | Emax [6] [%] | SMILES | Ratio EC50 (Mus musculus [2]) | Ratio EC50 (Mus musculus [4]) | Ratio EC50 (Homo sapiens) |
| --- | --- | --- | --- | --- | --- | --- | --- |
| 1.2 | 20.8 | 3.7 | 13.5 | Cc1cc(CC(=O)O)cc(CN2CCN(c3nc4ccc(C(F)(F)F)cc4s3)[C@H](C)C2)c1 | 74 | 152 | 258 |
| 3.1 | 20.4 | 3.9 | 14 | Cc1cc(CC(=O)O)cc(CN2CCN(c3nc4ccc(C(F)(F)F)cc4s3)[C@@H](C)C2)c1 | 69 | 100 | 175 |
